Experimental data taken from ChEMBL document CHEMBL1126009, “Synthesis and biological activities of fatty acid conjugates of a cyclic lactam alpha-melanotropin” (1992).

Tests used:
lizard [1] = experiment: […] activity in lizard skin (10e-9 M) bioassay, compared to the half-maximal effective dose of alpha-MSH (1.0); response is not prolonged (-).; type: functional
S91 [2] = experiment: […] potency was measured as the minimal effective dose required to elicit the response relative to alpha-MSH(1.0) by using melanoma tyrosinase bioassay; response is prolonged (+).range=10-100; type: functional, Mus musculus
S91 [3] = experiment: […] potency was measured as the minimal effective dose required to elicit the response relative to alpha-MSH(1.0) by using melanoma tyrosinase bioassay; response is somewhat prolonged (+/-).; type: functional, Mus musculus
lizard [4] = experiment: […] activity in lizard skin (10e-9 M) bioassay, compared to the half-maximal effective dose of alpha-MSH (1.0); response is prolonged (+).; type: functional
S91 [5] = experiment: […] potency was measured as the minimal effective dose required to elicit the response relative to alpha-MSH(1.0) by using melanoma tyrosinase bioassay; response is prolonged (+).range =10-100; type: functional, Mus musculus

How did the Melanotropic activity (lizard [1]) turn out when CC(=O)N[C@H]1CC(=O)NCCCC[C@@H](C(N)=O)NC(=O)[C@H](Cc2c[nH]c3ccccc23)NC(=O)[C@@H](CCCN=C(N)N)NC(=O)[C@@H](Cc2ccccc2)NC(=O)[C@@H](Cc2c[nH]cn2)NC1=O was run?
The Melanotropic activity was 1.

CCCCCCCCCCCCCCCC(=O)N[C@H]1CC(=O)NCCCC[C@@H](C(N)=O)NC(=O)[C@H](Cc2c[nH]c3ccccc23)NC(=O)[C@H](CCCN=C(N)N)NC(=O)[C@@H](Cc2ccccc2)NC(=O)[C@H](Cc2c[nH]cn2)NC1=O was tested. Which Melanotropic potency (S91 [2]) did it give?
Its Melanotropic potency is 100.

Which Melanotropic potency (S91 [3]) does the source give for CC(=O)N[C@H]1CC(=O)NCCCC[C@@H](C(N)=O)NC(=O)[C@H](Cc2c[nH]c3ccccc23)NC(=O)[C@H](CCCN=C(N)N)NC(=O)[C@@H](Cc2ccccc2)NC(=O)[C@H](Cc2c[nH]cn2)NC1=O here?
Its Melanotropic potency is 1.

Which Melanotropic potency (S91 [3]) does the source give for NC(=O)[C@@H]1CCCCNC(=O)C[C@H](N)C(=O)N[C@@H](Cc2c[nH]cn2)C(=O)N[C@H](Cc2ccccc2)C(=O)N[C@@H](CCCN=C(N)N)C(=O)N[C@@H](Cc2c[nH]c3ccccc23)C(=O)N1 here?
The Melanotropic potency was 1.

How did the Melanotropic activity (lizard [4]) turn out when CCCCCC(=O)N[C@H]1CC(=O)NCCCC[C@@H](C(N)=O)NC(=O)[C@H](Cc2c[nH]c3ccccc23)NC(=O)[C@@H](CCCN=C(N)N)NC(=O)[C@H](Cc2ccccc2)NC(=O)[C@@H](Cc2c[nH]cn2)NC1=O was run?
Its Melanotropic activity is 1.

For CCCCCCCCCC(=O)NC1CC(=O)NCCCC[C@@H](C(N)=O)NC(=O)[C@H](Cc2c[nH]c3ccccc23)NC(=O)[C@@H](CCCN=C(N)N)NC(=O)[C@H](Cc2ccccc2)NC(=O)[C@@H](Cc2c[nH]cn2)NC1=O (some centres not stated), which Melanotropic activity (lizard [4]) is on record?
Its Melanotropic activity is 1.

CCCCCCCCCC(=O)N[C@H]1CC(=O)NCCCC[C@@H](C(N)=O)NC(=O)[C@H](Cc2c[nH]c3ccccc23)NC(=O)[C@H](CCCN=C(N)N)NC(=O)[C@@H](Cc2ccccc2)NC(=O)[C@H](Cc2c[nH]cn2)NC1=O was tested. Which Melanotropic potency (S91 [2]) did it give?
Its Melanotropic potency is 100.

Which Melanotropic potency (S91 [5]) does the source give for CCCCCCCCCCCCCC(=O)N[C@H]1CC(=O)NCCCC[C@@H](C(N)=O)NC(=O)[C@H](Cc2c[nH]c3ccccc23)NC(=O)[C@H](CCCN=C(N)N)NC(=O)[C@@H](Cc2ccccc2)NC(=O)[C@H](Cc2c[nH]cn2)NC1=O here?
The Melanotropic potency was 100.

How did the Melanotropic activity (lizard [4]) turn out when CCCCCCCCCCCCCCCC(=O)NC1CC(=O)NCCCC[C@@H](C(N)=O)NC(=O)[C@H](Cc2c[nH]c3ccccc23)NC(=O)[C@@H](CCCN=C(N)N)NC(=O)[C@H](Cc2ccccc2)NC(=O)[C@@H](Cc2c[nH]cn2)NC1=O (some centres not stated) was run?
Its Melanotropic activity is 0.01.

NC(=O)[C@@H]1CCCCNC(=O)C[C@H](N)C(=O)N[C@H](Cc2c[nH]cn2)C(=O)N[C@H](Cc2ccccc2)C(=O)N[C@H](CCCN=C(N)N)C(=O)N[C@@H](Cc2c[nH]c3ccccc23)C(=O)N1 was tested. Which Melanotropic activity (lizard [1]) did it give?
Its Melanotropic activity is 0.2.

For CCCCCC(=O)N[C@H]1CC(=O)NCCCC[C@@H](C(N)=O)NC(=O)[C@H](Cc2c[nH]c3ccccc23)NC(=O)[C@H](CCCN=C(N)N)NC(=O)[C@@H](Cc2ccccc2)NC(=O)[C@H](Cc2c[nH]cn2)NC1=O, which Melanotropic potency (S91 [2]) is on record?
The Melanotropic potency was 100.

For CCCCCCCCCCCCCC(=O)NC1CC(=O)NCCCC[C@@H](C(N)=O)NC(=O)[C@H](Cc2c[nH]c3ccccc23)NC(=O)[C@@H](CCCN=C(N)N)NC(=O)[C@H](Cc2ccccc2)NC(=O)[C@@H](Cc2c[nH]cn2)NC1=O (some centres not stated), which Melanotropic activity (lizard [4]) is on record?
Its Melanotropic activity is 0.01.
